Data set [1] in a line: Log D (octanol / phosphate buffer pH 7.4). In kind it is physicochemical. The conditions noted are these: for logD at 1 h: octanol/potassium phosphate buffer, pH 7.4, octanol / potassium phosphate buffer pH 7.4. On the procedure: 10 μL of 10 mM stock solutions was placed into a 96-well plate, and 300 μL of octanol was subsequently added. The plate was sealed and agitated on a plate shaker for 5 minutes, followed by centrifugation at 2000 rpm for 5 minutes. The seal was removed and 600 μL of potassium phosphate buffer (pH 7.4) was added. The plate was sealed and the two phases were mixed by shaking vigorously on a plate shaker for 1 hour at 25° C. The plate was then centrifuged for 2000 rpm for 5 minutes and the seal was removed. 10 μL of water was aspirated out of the water phase samples from the water phase plate and mixed with 10 μL of water (1:2 dilution). 180 μL of 50% Ethanol was added into the water phase sample plate (1:10 dilution) to achieve a 1:20 dilution. 50 μL of water phase samples were then mixed with 100 μL of 50% Ethanol (containing IS) into the water phase sample plate to achieve a 1:60 dilution. 10 μL from the octanol phase (the upper phase) was transferred into a new 96-well plate and 190 μL of 50% Ethanol was added (1:20 dilution). 10 μL of the 1:20 diluted octanol samples was transferred into a new 96 deep-well plate and 390 μL of 50% Ethanol (1:40 dilution) was added to achieve a 1:800 dilution. 50 μL of the 1:800 diluted octanol samples were transferred into a new 96-well plate and 100 μL of 50% Ethanol with IS was added to achieve a 1:2400 dilution. The samples were subsequently analyzed with LCMS.

The test system of another data set is IFNα/pSTAT5. As to the kind of experiment: Whole blood potency (IFNα/pSTAT5), mouse. The data set is classed as cell-based. The following applies: read-out: Cellular Whole Blood Potency IC50 (IFNα/pSTAT5), Mouse. From the text:
Exemplary compounds of the invention, compounds 1 and 2 were compared in this assay.

Data set [2] in a line: GLP in vivo assay of genotoxicity.

The text below walks through data of patent US20260048051A1, “TREATMENT OF INFLAMMATORY BOWEL DISEASE” (Atomwise Inc., priority 2024, published 2026).

“Also recorded” adds a separate entry of the source. Read-outs that look alike come from different tables or passages of the source.

Consider `C[C@@H](c1ccc(Nc2cc(Nc3ncccc3S(C)(=O)=O)ncn2)nc1)N1CC2(COC2)C1` [Compound 1, (S)—N^4-(5-(1-(2-oxa-6-azaspiro[3.3]heptan-6-yl)ethyl)pyridin-2-yl)-N^6-(3-(methylsulfonyl)pyridin-2-yl)pyrimidine-4,6-diamine], for which the LogD (as a rule, the decadic logarithm of the distribution of all forms, ionised or not, between an organic phase and buffer at a given pH) in data set [1] (octanol / potassium phosphate buffer pH 7.4) was found to be 1.33. In addition, the log distribution coefficient (logD) – broadly, the decadic logarithm of the distribution of all forms, ionised or not, between an organic phase and buffer at a given pH – at 1 h in data set [1] is roughly 1.3. Further, in the data set with IFNα/pSTAT5, the IC50 was found to be 0.116 µM.

In turn, `C[C@@H](c1ccc(Nc2cc(Nc3ncc(F)cc3S(C)(=O)=O)ncn2)nc1)N1CC2(COC2)C1` [Compound 2, (S)—N^4-(5-(1-(2-oxa-6-azaspiro[3.3]heptan-6-yl)ethyl)pyridin-2-yl)-N^6-(5-fluoro-3-(methylsulfonyl)pyridin-2-yl)pyrimidine-4,6-diamine] yielded a logD at 1 h in data set [1] of roughly 1.6. The figures for the genotoxicity result in data set [2] and in data set [2] (listed as compound 2) were “substantially no genotoxicity; also recorded: virtually no genotoxicity” and “substantially non-genotoxic”, respectively. Also, the IC50 with IFNα/pSTAT5 was 0.0643 µM.
